The test system of data set [1] is A375 melanoma cells. Kind of data set: Cell viability by cell counting, trypan blue exclusion method. It is filed as cell-based. Conditions: Homo sapiens, A-375, 48 h, percentage of cells alive relative to negative control DMSO (100%).
The nature of a further data set: Aqueous solubility. It is filed as physicochemical. To be noted: aqueous medium (not further specified), read-out: Solublity.
For data set [2], the system named is A375 melanoma cells. Put plainly: IC50 determination in A375 cells, blue trypan exclusion. In kind it is cell-based, human. To be noted: Homo sapiens, A-375; A375, serum free, 24 h.

The source of these data is patent US20250353821A1, “BENZENE SULFONAMIDE THIAZOLE COMPOUNDS AND THEIR USE FOR THE TREATMENT OF CANCERS” (INSERM (INSTITUT NATIONAL DE LA SANTÉ ET DE LA RECHERCHE …, priority 2021, published 2025).

≈ marks a conversion by molar mass, not a printed value.

Broadly, the viability is a read-out of living cells in per cent, often relative to untreated cells. A word on the IC50: it is the midpoint of a concentration-inhibition curve. Read a high IC50 as a need for much substance.

As to `COc1ccc(-c2csc(NC(C)=O)n2)cc1NS(=O)(=O)c1cccc2c(N(C)C)cccc12` [PB600, N-(4-(3-((5-(dimethylamino)naphthalene)-1-sulfonamido)-4-methoxyphenyl)thiazol-2-yl)acetamide], in the data set with A375 melanoma cells [1], the viability at 10 µM came out at 48.8 ± 4.3%.
Regarding `CN(C)c1cccc2c(S(=O)(=O)Nc3cc(-c4csc(NC(=O)CN5CCN(CCO)CC5)n4)ccc3F)cccc12` [PB601, N-(4-(3-((5-(dimethylamino)naphthalene)-1-sulfonamido)-4-fluorophenyl)thiazol-2-yl)-2-(4-(2-hydroxyethyl)piperazin-1-yl)acetamide], the solubility in the data set “Aqueous solubility” is 5.2 ± 1.9 µM (≈ 3.19 µg/mL). In addition, in the data set with A375 melanoma cells [1], the viability at 1 µM amounted to 47.2 ± 6.7%, the viability at 5 µM is 22.5 ± 5.3% and the viability at 10 µM stood at 10.2 ± 2.7%.
As to `COc1ccc(-c2csc(NC(=O)CN3CCN(CCO)CC3)n2)cc1NS(=O)(=O)c1cccc2c(N(C)C)cccc12` [PB602, N-(4-(3-((5-(dimethylamino)naphthalene)-1-sulfonamido)-4-methoxyphenyl)thiazol-2-yl)-2-(4-(2-hydroxyethyl)piperazin-1-yl)acetamide], the solubility in “Aqueous solubility” came out at 3.4 ± 0.7 µM (≈ 2.12 µg/mL). Moreover, in the data set with A375 melanoma cells [1], the viability at 1 µM stood at 47.6 ± 2.4%, the viability at 5 µM was determined as 1.7 ± 0.9% and the viability at 10 µM stood at 1 ± 1%.
Take `COCCOc1ccc(-c2csc(NC(C)=O)n2)cc1NS(=O)(=O)c1cccc2c(N(C)C)cccc12` [PB603, N-(4-(3-((5-(dimethylamino)naphthalene)-1-sulfonamido)-4-(2-methoxyethoxy)phenyl)thiazol-2-yl)acetamide]: in the data set with A375 melanoma cells [1], the viability at 10 µM turned out to be 43.1 ± 8.7%.
In the case of `COCCOc1ccc(-c2csc(NC(=O)CN3CCN(CCO)CC3)n2)cc1NS(=O)(=O)c1cccc2c(N(C)C)cccc12` [PB604, N-(4-(3-((5-(dimethylamino)naphthalene)-1-sulfonamido)-4-(2-methoxyethoxy)phenyl)thiazol-2-yl)-2-(4-(2-hydroxyethyl)piperazin-1-yl)acetamide], in the data set “Aqueous solubility”, the solubility worked out at 4.1 ± 0.4 µM (≈ 2.74 µg/mL). Moreover, in the data set on A375 melanoma cells [1], the viability at 1 µM was 57.7 ± 16.5%, the viability at 5 µM was determined as 19 ± 8.6% and the viability at 10 µM is 16.3 ± 9.8%.
On to `CN(C)c1cccc2c(S(=O)(=O)Nc3cccc(-c4csc(NC(=O)COCC(O)CO)n4)c3)cccc12` (stereo not drawn) [PB605, 2-(2,3-dihydroxypropoxy)-N-(4-(3-((5-(dimethylamino)naphthalene)-1-sulfonamido)phenyl)thiazol-2-yl)acetamide], for which the solubility in “Aqueous solubility” turned out to be 2.8 ± 0.5 µM (≈ 1.56 µg/mL). Further, in the data set on A375 melanoma cells [1], the viability at 1 µM is 64.5 ± 4.3%, the viability at 5 µM was 29.4 ± 9.8% and the viability at 10 µM worked out at 6.4 ± 0.6%.
As to `CN(C)c1cccc2c(S(=O)(=O)Nc3cccc(-c4csc(NC(=O)CCCCCNC(=O)OC(C)(C)C)n4)c3)cccc12` [PB624, Tert-butyl(6-((4-(3-((5-(dimethylamino)naphthalene)-1-sulfonamido)phenyl)thiazol-2-yl)amino)-6-oxohexyl)carbamate], in the data set with A375 melanoma cells [1], the viability at 5 µM is 87.8 ± 16.2% and the viability at 10 µM came to 33.3 ± 5.5%.
On to `CCOC(=O)CCCC(=O)Nc1nc(-c2cccc(NS(=O)(=O)c3cccc4c(N(C)C)cccc34)c2)cs1` [PB625, Ethyl 5-((4-(3-((5-(dimethylamino)naphthalene)-1-sulfonamido)phenyl)thiazol-2-yl)amino)-5-oxopentanoate], for which, in the data set with A375 melanoma cells [1], the viability at 5 µM is 93 ± 3% and the viability at 10 µM worked out at 36.5 ± 7.5%.
`CN(C)c1cccc2c(S(=O)(=O)Nc3cccc(-c4csc(NC(=O)CCCNC(=O)OC(C)(C)C)n4)c3)cccc12` [PB631, Tert-butyl (4-((4-(3-((5-(dimethylamino)naphthalene)-1-sulfonamido)phenyl)thiazol-2-yl)amino)-4-oxobutyl)carbamate]: in the data set with A375 melanoma cells [1], the viability at 5 µM is 31.3 ± 4.9% and the viability at 10 µM was 35.4 ± 14.2%.
`CC(=O)NCCCC(=O)Nc1nc(-c2cccc(NS(=O)(=O)c3cccc4c(N(C)C)cccc34)c2)cs1` [PB633]: in the data set with A375 melanoma cells [1], the viability at 5 µM turned out to be 65.2 ± 9.9% and the viability at 10 µM is 43.8 ± 12.7%.
Regarding `Cc1nc(-c2cccc(NS(=O)(=O)c3cccc4c(N(C)C)cccc34)c2)cs1` [PB635, 5-(dimethylamino)-N-(3-(2-methylthiazol-4-yl)phenyl)naphthalene-1-sulfonamide], in the data set with A375 melanoma cells [1], the viability at 5 µM amounted to 47 ± 13.5% and the viability at 10 µM came to 46.9 ± 4.4%.
On to `CN1CCN(CC(=O)Nc2nc(-c3cccc(NS(=O)(=O)c4cccc5c(N(C)C)cccc45)c3)cs2)CC1` [PB638, N-(4-(3-((5-(dimethylamino)naphthalene)-1-sulfonamido)phenyl)thiazol-2-yl)-2-(4-methylpiperazin-1-yl)acetamide], for which the solubility in the data set “Aqueous solubility” was found to be 4 ± 2 µM (≈ 2.26 µg/mL). Further, in the data set with A375 melanoma cells [1], the viability at 1 µM was 37.5 ± 5.9%, the viability at 5 µM came out at 0.9 ± 1% and the viability at 10 µM was determined as 0%.
As for `CN(C)c1cccc2c(S(=O)(=O)Nc3cccc(-c4csc(NC(=O)CN5CCOCC5)n4)c3)cccc12` [PB639, N-(4-(3-((5-(dimethylamino)naphthalene)-1-sulfonamido)phenyl)thiazol-2-yl)-2-morpholinoacetamide], in the data set on A375 melanoma cells [1], the viability at 1 µM was determined as 100 ± 23.6%, the viability at 5 µM was 63.5 ± 16% and the viability at 10 µM came out at 24%.
Regarding `CN(C)c1cccc2c(S(=O)(=O)Nc3cccc(-c4csc(NC(=O)CN5CCN(CCO)CC5)n4)c3)cccc12` [PB640, N-(4-(3-((5-(dimethylamino)naphthalene)-1-sulfonamido)phenyl)thiazol-2-yl)-2-(4-(2-hydroxyethyl)piperazin-1-yl)acetamide], the solubility in the data set “Aqueous solubility” came out at 4.2 ± 0.4 µM (≈ 2.5 µg/mL). Further, in the data set with A375 melanoma cells [1], the viability at 1 µM was 54.2 ± 5.9%, the viability at 5 µM turned out to be 67 ± 10.6% and the viability at 10 µM came out at 0%.
For the compound `CN(C)c1cccc2c(S(=O)(=O)Nc3cccc(-c4csc(NC(=O)CN5CCC(C(N)=O)CC5)n4)c3)cccc12` [PB641, 1-(2-((4-(3-((5-(dimethylamino)naphthalene)-1-sulfonamido)phenyl)thiazol-2-yl)amino)-2-oxoethyl)piperidine-4-carboxamide], in the data set on A375 melanoma cells [1], the viability at 1 µM was 104 ± 5.9%, the viability at 5 µM was found to be 105 ± 18.9% and the viability at 10 µM amounted to 40%.
For `CN(C)c1cccc2c(S(=O)(=O)Nc3cccc(-c4csc(NC(=O)CNCCO)n4)c3)cccc12` [PB643, N-(4-(3-((5-(dimethylamino)naphthalene)-1-sulfonamido)phenyl)thiazol-2-yl)-2-((2-hydroxyethyl)amino)acetamide], the solubility in the data set “Aqueous solubility” was found to be 3 ± 1 µM (≈ 1.58 µg/mL). In the data set on A375 melanoma cells [1], the viability at 1 µM was found to be 108 ± 11.8%, the viability at 5 µM worked out at 29.8 ± 6.5% and the viability at 10 µM worked out at 0%.
For `CN(C)c1cccc2c(S(=O)(=O)Nc3cccc(-c4csc(NC(=O)CNCCCN5CCOCC5)n4)c3)cccc12` [PB644, N-(4-(3-((5-(dimethylamino)naphthalene)-1-sulfonamido)phenyl)thiazol-2-yl)-2-((3-morpholinopropyl)amino)acetamide], in the data set with A375 melanoma cells [1], the viability at 1 µM was 83.3 ± 23.6%, the viability at 5 µM amounted to 11.7 ± 1.2% and the viability at 10 µM stood at 8%.
As for `CCOP(=O)(NCC(=O)Nc1nc(-c2cccc(NS(=O)(=O)c3cccc4c(N(C)C)cccc34)c2)cs1)OCC` [PB649, Diethyl-(2-((4-(3-((5-(dimethylamino)naphthalene)-1-sulfonamido)phenyl)thiazol-2-yl)amino)-2-oxoethyl)phosphoramidate], in the data set on A375 melanoma cells [1], the viability at 5 µM came to 77.7 ± 19.8% and the viability at 10 µM is 26.4 ± 4.5%.
With `CC(=O)Nc1nc(-c2ccc(F)c(NS(=O)(=O)c3cccc4c(N(C)C)cccc34)c2)cs1` [PB651, N-(4-(3-((5-(dimethylamino)naphthalene)-1-sulfonamido)-4-fluorophenyl)thiazol-2-yl)acetamide], in the data set on A375 melanoma cells [1], the viability at 5 µM came to 89.4 ± 5.6% and the viability at 10 µM turned out to be 25 ± 8.1%.
`CN(C)c1cccc2c(S(=O)(=O)Nc3cccc(-c4csc(NC(=O)CNCCS(=O)(=O)O)n4)c3)cccc12` [PB654, 2-((2-((4-(3-((5-(dimethylamino)naphthalene)-1-sulfonamido)phenyl)thiazol-2-yl)amino)-2-oxoethyl)amino)ethane-1-sulfonic]: the solubility in the data set “Aqueous solubility” was found to be 88 ± 3 µM (≈ 51.9 µg/mL). In addition, in the data set with A375 melanoma cells [1], the viability at 5 µM worked out at 89.4 ± 6.5% and the viability at 10 µM stood at 70 ± 13.8%.
Turning to `CN1CCN(CCCCCC(=O)Nc2nc(-c3cccc(NS(=O)(=O)c4cccc5c(N(C)C)cccc45)c3)cs2)CC1` [PB697, N-(4-(3-((5-(dimethylamino)naphthalene)-1-sulfonamido)phenyl)thiazol-2-yl)-6-(4-methylpiperazin-1-yl)hexanamide], it took 2 µM to reach half-maximal inhibition in the data set with A375 melanoma cells [2] (IC50).
On to `CN(C)c1cccc2c(S(=O)(=O)Nc3cccc(-c4csc(NC(=O)CCCCCN5CCN(CCO)CC5)n4)c3)cccc12` [PB698, N-(4-(3-((5-(dimethylamino)naphthalene)-1-sulfonamido)phenyl)thiazol-2-yl)-6-(4-(2-hydroxyethyl)piperazin-1-yl)hexanamide], for which, in the data set with A375 melanoma cells [2], the concentration for half-maximal inhibition (IC50) is 1.75 µM.
Regarding `CCCCCc1ccc(S(=O)(=O)Nc2cccc(-c3csc(N4CCN(C)CC4)n3)c2)cc1` [PB707, N-(3-(2-(4-methylpiperazin-1-yl)thiazol-4-yl)phenyl)-4-pentylbenzenesulfonamide], in the data set on A375 melanoma cells [2], the IC50 was 2.5 µM.
`CCCCCc1ccc(S(=O)(=O)Nc2cccc(-c3csc(N4CCN(CCO)CC4)n3)c2)cc1` [PB708, N-(3-(2-(4-(2-hydroxyethyl)piperazin-1-yl)thiazol-4-yl)phenyl)-4-pentylbenzenesulfonamide] registered an IC50 with A375 melanoma cells [2] of 2.5 µM.
